Patent US8808737B2 (Endo Pharmaceuticals Inc., priority 2007, dated 2014)

Assays:
[1] = Example 5: plasma pharmacokinetics of oxymorphone and metabolites after EN3202 in renal impairment vs healthy controls; settings: for Mean bioavailability ratio (90% confidence interval) for AUC relative to controls / Mean bioavailability ratio (90% confidence interval) for Cmax relative to controls: ln-transformed; for AUC: AUC in plasma (mean, untransformed); for AUC(0-t): AUCT in plasma (mean, untransformed); for Cmax: Cmax in plasma (mean, untransformed); for half-life: t½, terminal elimination half-life in plasma (mean)
Protocol: (§1) Attempts were made to match controls with the renal impaired patients with respect to age, gender, and weight. […] Naltrexone (50 mg) was administered on the evening prior to administration of the EN3202 dose.
In order to protect the subjects from potential opioid-related adverse events, a single 50-mg dose of the opioid antagonist ReVia® (naltrexone HCl) was administered at 20:00 the evening prior to administration of test medication. […] Subjects continued fasting until four (4) hours after dose administration. The subjects remained in an upright posture (sitting or standing) for 1 hour after dose administration. All doses were administered with 240 mL of water (room temperature), and the subjects were instructed to drink all the water.
(§2) Plasma and urine pharmacokinetic variables were calculated from the concentration data using standard, non-compartmental methods as outlined in the following table.
All pharmacokinetic results are summarized using appropriate descriptive statistics. Continuous variables were compared between renally impaired and control groups using appropriate parametric statistics. 90% confidence intervals were calculated for the differences or ratios between the renally impaired and control groups. In addition, the association between oral clearance (and other pharmacokinetic variables) and the severity of renal insufficiency (based on creatinine clearance) was explored.

[2] = in vivo; cited from earlier work
[3] = Example 5: correlation of oxymorphone and metabolite plasma AUC / oral clearance with creatinine clearance; format: in vivo, human; settings: linear regression
Description: Creatinine clearance (ClCR) was estimated at screening using the following Cockroft and Gault^8 equation: […]
All pharmacokinetic results are summarized using appropriate descriptive statistics.
The potential association between plasma AUC and creatinine clearance was explored using linear regression techniques and the results are summarized in Table 36 and FIG. 16.

[4] = Example 5: urinary excretion of oxymorphone and metabolites after EN3202 in renal impairment; settings: for Mean (SD) Percent of Dose Recovered in Urine (0-120 hours): single oral 20-mg dose of EN3202; for half-life: human, urine, oral, 20 mg, Mean urinary elimination half-life
Protocol: as §1
Each subject was to be instructed to void at the end of each interval (so that each collection interval began with an empty bladder). The void prior to administration of the test medication (time 0) served as the pre-dose blank and was not be included in the collection container.
as §2

[5] = Pain levels (VAS, categorical scale) vs plasma oxymorphone and 6-hydroxyoxymorphone after a single dose; format: in vivo, human; settings: single dose of oxymorphone, FIGS. 1-4
Protocol: For these tests, pain was measured using a Visual Analog Scale (VAS) or a Categorical Scale. The VAS scales consisted of a horizontal line, 100 mm in length. The left-hand end of the scale (0 mm) was marked with the descriptor “No Pain” and the right-hand end of the scale (100 mm) was marked with the descriptor “Extreme Pain”. Patients indicated their level of pain by making a vertical mark on the line. The VAS score was equal to the distance (in mm) from the left-hand end of the scale to the patient's mark. For the categorical scale, patients completed the following statement, “My pain at this time is” using the scale None=0, Mild=1, Moderate=2, or Severe=3.

[6] = EN3202 20 mg, mild renal impairment
[7] = EN3202 20 mg, moderate renal impairment
[8] = EN3202 20 mg, severe renal impairment
[9] = human, plasma, oral, 20 mg, single 20 mg dose of EN3202, Healthy Controls
[10] = human, plasma, oral, 20 mg, single 20 mg dose of EN3202, Mild Impairment
[11] = human, plasma, oral, 20 mg, single 20 mg dose of EN3202, Moderate Impairment
[12] = human, plasma, oral, 20 mg, single 20 mg dose of EN3202, Severe Impairment
[13] = single 20 mg dose of EN3202, Moderate Impairment
[14] = single 20 mg dose of EN3202, Severe Impairment
[15] = AUC normalized for body weight vs creatinine clearance
[16] = oral clearance vs creatinine clearance
[17] = plasma AUC vs creatinine clearance

CN1CC[C@]23c4c5ccc(O)c4O[C@H]2C(=O)CC[C@@]3(O)[C@H]1C5 [Oxymorphone, 14-hydroxydihydromorphinone, reference compound]
Mean bioavailability ratio (90% confidence interval) for AUC relative to controls [1, 6]: 1.2559 (0.8566-1.8414)
Mean bioavailability ratio (90% confidence interval) for Cmax relative to controls [1, 6]: 1.3772 (0.9359-2.0265)
Mean bioavailability ratio (90% confidence interval) for AUC relative to controls [1, 7]: 1.5722 (1.0723-2.3051)
Mean bioavailability ratio (90% confidence interval) for Cmax relative to controls [1, 7]: 1.6494 (1.1209-2.4270)
Mean AUC increased relative to healthy controls [1, 8]: 1.7 fold
Mean bioavailability ratio (90% confidence interval) for AUC relative to controls [1, 8]: 1.6529 (1.1274-2.4234)
Mean bioavailability ratio (90% confidence interval) for Cmax relative to controls [1, 8]: 1.8042 (1.2261-2.6549)
Mean increase in plasma AUC values relative to healthy controls ([1]; EN3202 20 mg, subjects with creatinine clearance values, 30 mL/min): approximately 1.8 fold
Tmax ([1]; human, plasma, oral, 20 mg): 3.5 h
AUC [1, 9]: 18.9 ng·h/mL
AUC [1, 10]: 21.7 ng·h/mL
AUC [1, 11]: 27.9 ng·h/mL
AUC [1, 12]: 34.5 ng·h/mL
AUC(0-t) [1, 9]: 15.8 ng·h/mL
AUC(0-t) [1, 10]: 19 ng·h/mL
AUC(0-t) [1, 11]: 26.1 ng·h/mL
AUC(0-t) [1, 12]: 29.7 ng·h/mL
Cmax [1, 9]: 1.16 ng/mL
Cmax [1, 10]: 1.47 ng/mL
Cmax [1, 11]: 1.75 ng/mL
Cmax [1, 12]: 2.04 ng/mL
half-life [1, 9]: 13.5 h
half-life [1, 10]: 12.4 h
half-life [1, 12]: 13.3 h
CLo, clearance after oral administration (mean) ([1]; single 20 mg dose of EN3202, Healthy Controls): 22.07 L/min
CLo, clearance after oral administration (mean) ([1]; single 20 mg dose of EN3202, Mild Impairment): 16.14 L/min
CLo, clearance after oral administration (mean) [1, 13]: 13.53 L/min
t½, terminal elimination half-life in plasma (mean) [1, 13]: 9.92 h
AUC in plasma (mean, untransformed) [1, 14]: 32.46 ng·h/mL
CLo, clearance after oral administration (mean) [1, 14]: 13.79 L/min
Tmax in plasma (median) [1, 14]: 2.0 h
Oral bioavailability [2]: about 10%
AUC/wt vs. CLCR: R-square [3, 15]: 0.2898
AUC/wt vs. CLCR: Slope [3, 15]: −0.0013
CL/F vs. CLCR: R-square [3, 16]: 0.2592
CL/F vs. CLCR: Slope [3, 16]: 0.1229
AUC vs. CLCR: R-square [3, 17]: 0.2400
AUC vs. CLCR: Slope [3, 17]: −0.1852
Mean percentage of the administered dose excreted in the urine ([4]; EN3202 20 mg, 0-120 hours, severe renal impairment): 0.38%
Mean percentage of the dose excreted in the urine unchanged, reduced relative to healthy controls [4, 8]: approximately 50%
Mean (SD) Percent of Dose Recovered in Urine (0-120 hours) ([4]; healthy controls): 0.77 (0.36) %
half-life ([4]; EN3202 20 mg, healthy controls): 12.5 h
half-life [4, 6]: 12.1 h
half-life [4, 7]: 13.9 h
half-life [4, 8]: 21 h
Mean (SD) Percent of Dose Recovered in Urine (0-120 hours) ([4]; subjects with mild renal impairment): 1.37 (2.10) %
Mean (SD) Percent of Dose Recovered in Urine (0-120 hours) ([4]; subjects with moderate renal impairment): 0.66 (0.29) %
Mean (SD) Percent of Dose Recovered in Urine (0-120 hours) ([4]; subjects with severe renal impairment): 0.38 (0.19) %
Relation between pain relief and blood plasma level [5]: there is a correlation
